According to patent US4727090A, “Process for preparing and therapeutical applications of the 2,4,6-triiodophenol” (Bislak, S.A., priority 1983, dated 1988):

Legend:
vascular surface = assay: Vascular caliber by echo-Doppler in cardiovascular patients (vasodilatory action); format: in vivo; conditions: 30 mg/day intramuscular
From the text: (§1) The technology used to show the hemodynamic changes was of the non-invasivetype, as in this way experiments can be repeated and are completely innoxious for the patient. Of all the non-invasive methods of diagnosis we selected the most reliable of actual conditions, which is the method of ultrasounds (echo and Doppler's effects). The bidimensional echocardiography in real time, combined with pulsatile Doppler and the bidimensional vascular echography combined with pulsatile Doppler hemodynamic, are actually the two most reliable non-invasive techniques for the study of the anatomic changes and macroscopic hemodynamics with regard to the cardiovascular apparatus. That's why we used for the study of the clinical effects of the 2,4,6-triiodophenol an echo-Doppler trade mark ATL (Mark V), being the transmission frequency of 3 MHz, as well as a continuous Doppler trade mark SONICAID of 4 and 8 MHz.
(§2) Patients were divided in four statistically acceptable groups (50 in each group), comparing the results obtained with this medicament before, during and after the treatment.
(§3) Methodologically there are practiced echographical cuts in real time of the heart, big vases, supra-aortic trunks, abdominal aorta, portal and caval systems and iliac and femoral arteries, obtaining fluxmetric samples Doppler in all the mentioned cardiac cavities and blood vessels to study the sense of the flow, outflow (stream) or volume of flow and the hemodynamic features of the sanguineous flow.
(§4) Hereunder we expose the clinical results obtained after the administration during three months of the 2,4,6-triiodophenol in 200 cardiovascular patients.
(§5) Sick persons were divided in 4 groups; (1) 50 patients with cerebral vascular insufficiency, (2) 50 patients with coronary insufficiency, (3) 50 patients with hepatic insufficiency and (4) 50 patients with peripheral vascular insufficiency of the lower extremities. All these persons received an intramuscular administration, a dosage of 30 mg/day of 2,4,6-triiodophenol, carrying out controls at the first, second and third month of all angiohemodynamic parameters, supposing a total of 600 controls (150 per each group after the three months).

[1] = tested on: granuloma formed around cotton implant; assay: Cotton implant granuloma test; format: in vivo, rats; conditions: 72 hours
Method: (B) To a group of 10 rats of about 200-225 g is implanted at the dorsal zone, subcutaneously, balled cotton (about 9 mg) impregnated and afterwards dried with a solution of medicamentous substance and which amount is known.
We use as reference Dexamethasone and controls without medicament.
After 72 hours, once the animal is sacrificed, the granuloma formed around the implant is extracted and weighed, after drying at 100° C.
The antiinflammatory reduces the weight of the granuloma.

Carrageenin leg oedema = Carrageenin leg oedema test; format: in vivo, white rats; conditions: for inhibition at 5 mg/kg: Rattus norvegicus, 5 mg/kg oral
Method: (A) The antiinflammatory action is shown in white rats, of a weight of about 200-225 g, having provoked in these animals the leg oedema by means of an injection in the sole of the foot of 0.1 ml of a 1% Carrageenin solution.
One control group of ten animals, another the same medicated with indomethacin via oral at 30 mg/kg, in suspension in a carboxymethylcellulose solution, another group of ten rats, medicated with triiodophenol in oral solution at 5 mg/kg, another group medicated with triioodophenol at 1 mg/kg, injected via intramuscular and another group medicated with triiodophenol at 0.5 mg/kg via intramuscular. All medications are administered simultaneously to the formation of Edema.
The volume of the same is measured at 0 hours, 3 hours, 4 hours, 5 hours and 6 hours with a mercury Plestimograph.

[2] = tested on: sensation of pain on hot plate; assay: Hot plate test at 56° C; format: in vivo, mice
Method: (A) To control analgesic activity we use mice of about 25 g by weight, in groups of ten mice, subjected to the test of the hot plate at 56° C.
Animals receive a medicamentous injection of 0.1 ml of solubilized aspirin with sodium bicarbonate, or of solubilized triiodophenol at pH 9'5.
Controls receive physiologic serum.
The time in which the animals indicate sensation of pain is measured with a chronometer.
In the hereunder table the results testing animals, 15 min. and 30 min. after the medication. Average values are taken of each group.

Solubility = format: physicochemical
[3] = tested on: arthrosis and atherosclerosis patients; assay: Summary of 175 clinic cases treated; format: in vivo
From the text: Summary of 175 clinic cases treated with 2,4,6-triiodophenol.

pressure = assay: Systemic arterial and portal pressure in cardiovascular patients (hypotensor action); format: in vivo; conditions: 30 mg/day intramuscular
From the text: as §1, §2, §3, §4, §5

[4] = cerebral atherosclerosis, 37 patients
[5] = cervical arthrosis, 34 patients
[6] = obliterant atherosclerosis, 14 patients
[7] = vertebral arthrosis, 56 patients

Oc1c(I)cc(I)cc1I [2,4,6-triiodophenol]
Vascular caliber, abdominal aorta, variation (Δ %) (vascular surface; 1st month): +6% | Vascular caliber, caval iliac artery, variation (Δ %) (vascular surface; 1st month): +8% | Vascular caliber, portal carotid aorta, variation (Δ %) (vascular surface; 1st month): +11% | Vascular caliber, portal system, variation (Δ %) (vascular surface; 1st month): -13% | Vascular caliber, postcaval system, variation (Δ %) (vascular surface; 1st month): -9% | Vascular caliber, thoracic aorta, variation (Δ %) (vascular surface; 1st month): +3% | Vascular caliber, abdominal aorta, variation (Δ %) (vascular surface; 2nd month): +11% | Vascular caliber, caval iliac artery, variation (Δ %) (vascular surface; 2nd month): +12% | Vascular caliber, portal carotid aorta, variation (Δ %) (vascular surface; 2nd month): +12% | Vascular caliber, portal system, variation (Δ %) (vascular surface; 2nd month): -23% | Vascular caliber, postcaval system, variation (Δ %) (vascular surface; 2nd month): -14% | Vascular caliber, thoracic aorta, variation (Δ %) (vascular surface; 2nd month): +7% | Vascular caliber, abdominal aorta, variation (Δ %) (vascular surface; 3rd month): +13% | Vascular caliber, caval iliac artery, variation (Δ %) (vascular surface; 3rd month): +15% | Vascular caliber, portal carotid aorta, variation (Δ %) (vascular surface; 3rd month): +13% | Vascular caliber, portal system, variation (Δ %) (vascular surface; 3rd month): -26% | Vascular caliber, postcaval system, variation (Δ %) (vascular surface; 3rd month): -13% | Vascular caliber, thoracic aorta, variation (Δ %) (vascular surface; 3rd month): +9% | % Reduction of the granuloma (Average) ([1]; 100 micrograms per implant): 19% | % Reduction of the granuloma (Average) ([1]; 200 micrograms per implant): 28% | % Reduction of the granuloma (Average) ([1]; 400 micrograms per implant): 44% | % inhibition (oedema) (Carrageenin leg oedema; 0,5 mg/kg inj. (intramuscular), 3 hours): 20% | % inhibition (oedema) (Carrageenin leg oedema; 0,5 mg/kg inj. (intramuscular), 4 hours): 42% | % inhibition (oedema) (Carrageenin leg oedema; 0,5 mg/kg inj. (intramuscular), 5 hours): 49% | % inhibition (oedema) (Carrageenin leg oedema; 0,5 mg/kg inj. (intramuscular), 6 hours): 60% | % inhibition (oedema) (Carrageenin leg oedema; 1 mg/kg inj. (intramuscular), 4 hours): 66% | % inhibition (oedema) (Carrageenin leg oedema; 1 mg/kg inj. (intramuscular), 5 hours): 75% | % inhibition (oedema) (Carrageenin leg oedema; 1 mg/kg inj. (intramuscular), 6 hours): 82% | inhibition at 5 mg/kg (Carrageenin leg oedema; 3 hours): 43% | inhibition at 5 mg/kg (Carrageenin leg oedema; 4 hours): 50% | inhibition at 5 mg/kg (Carrageenin leg oedema; 5 hours): 57% | inhibition at 5 mg/kg (Carrageenin leg oedema; 6 hours): 65% | Time to sensation of pain ([2]; 1 mg/kg injection, 15 minutes): 6,5 sec. | Time to sensation of pain ([2]; 1 mg/kg injection, 30 minutes): 6,7 sec. | Time to sensation of pain ([2]; 10 mg/kg injection, 15 minutes): 11,7 sec. | Time to sensation of pain ([2]; 10 mg/kg injection, 30 minutes): 11,8 sec. | Solubility in alkali solutions (Solubility; alkali solutions): soluble | Solubility in chloroform and dichloromethane (Solubility; chloroform and dichloromethane): very soluble | Solubility in organic dissolvents (Solubility; ethylic and propylic alcohols, acetone and sulfuric ether): somewhat soluble | Solubility in water (Solubility; water): not very soluble | % obtained results, B. (good) [3, 4]: 6,25% | % obtained results, E. (excellent) [3, 4]: 81,25% | % obtained results, N. (null) [3, 4]: 3,15% | % obtained results, R. (regular) [3, 4]: 9,35% | % obtained results, B. (good) [3, 5]: 3,22% | % obtained results, E. (excellent) [3, 5]: 90,34% | % obtained results, N. (null) [3, 5]: 3,22% | % obtained results, R. (regular) [3, 5]: 3,22% | % obtained results, B. (good) ([3]; hip arthrosis, 13 patients): 23,10% | % obtained results, B. (good) ([3]; knee arthrosis, 16 patients): 12,5% | % obtained results, E. (excellent) ([3]; knee arthrosis, 16 patients): 81,25% | % obtained results, R. (regular) ([3]; knee arthrosis, 16 patients): 6,25% | % obtained results, B. (good) ([3]; lumbar arthrosis, 4 patients): 25% | % obtained results, E. (excellent) ([3]; lumbar arthrosis, 4 patients): 50% | % obtained results, R. (regular) ([3]; lumbar arthrosis, 4 patients): 25% | % obtained results, E. (excellent) ([3]; obliterant arthrosis, 1 patient): 100% | % obtained results, B. (good) [3, 6]: 7,15% | % obtained results, E. (excellent) [3, 6]: 92,85% | (B) Good result, % of patients ([3]; total 175 patients): 7,43% | (B) Good result, number of patients ([3]; total 175 patients): 13 | (E) Excellent result, % of patients ([3]; total 175 patients): 82,86% | (E) Excellent result, number of patients ([3]; total 175 patients): 145 | (N) Null result, % of patients ([3]; total 175 patients): 1,71% | (N) Null result, number of patients ([3]; total 175 patients): 3 | (R) Regular result, % of patients ([3]; total 175 patients): 8,00% | (R) Regular result, number of patients ([3]; total 175 patients): 14 | % obtained results, B. (good) [3, 7]: 10,42% | % obtained results, E. (excellent) [3, 7]: 83,33% | % obtained results, R. (regular) [3, 7]: 6,25% | Portal pressure, variation (Δ %) (pressure; 1st month): -8% | Systemic arterial pressure, variation (Δ %) (pressure; 1st month): -3% | Portal pressure, variation (Δ %) (pressure; 2nd month): -11% | Systemic arterial pressure, variation (Δ %) (pressure; 2nd month): -5% | Portal pressure, variation (Δ %) (pressure; 3rd month): -13% | Systemic arterial pressure, variation (Δ %) (pressure; 3rd month): -6%
